Measured values taken from patent US9073911B2, “Pyrazole derivatives” (HOFFMANN-LA ROCHE INC., priority 2011, dated 2015).
Structures can show the parent of a compound that is named as a salt.

Experiments:
[1] = target: mouse TAAR1 (Mus musculus (Mouse), UniProt Q923Y8); experiment: Radioligand binding assay on mouse TAAR1; conditions: membranes of HEK-293 cells stably expressing mouse TAAR1; first value of cell mouse/rat
Protocol: (§1) Construction of TAAR Expression Plasmids and Stably Transfected Cell Lines
(§2) For the construction of expression plasmids the coding sequences of human, rat and mouse TAAR 1 were amplified from genomic DNA essentially as described by Lindemann et al.. The Expand High Fidelity PCR System (Roche Diagnostics) was used with 1.5 mM Mg^2+ and purified PCR products were cloned into pCR2.1-TOPO cloning vector (Invitrogen) following the instructions of the manufacturer. PCR products were subcloned into the pIRESneo2 vector (BD Clontech, Palo Alto, Calif.), and expression vectors were sequence verified before introduction in cell lines.
(§3) HEK293 cells (ATCC # CRL-1573) were cultured essentially as described by Lindemann et al. (2005). For the generation of stably transfected cell lines HEK293 cells were transfected with the pIRESneo2 expression plasmids containing the TAAR coding sequences (described above) with Lipofectamine 2000 (Invitrogen) according to the instructions of the manufacturer, and 24 hrs post transfection the culture medium was supplemented with 1 mg/ml G418 (Sigma, Buchs, Switzerland). After a culture period of about 10 d clones were isolated, expanded and tested for responsiveness to trace amines (all compounds purchased from Sigma) with the cAMP Biotrak Enzyme immunoassay (EIA) System (Amersham) following the non-acetylation EIA procedure provided by the manufacturer.
Radioligand Binding Assay on Mouse TAAR1
(§4) Membrane Preparation and Radioligand Binding.
HEK-293 cells stably expressing mouse TAAR1 were maintained at 37° C. and 5% CO2 in DMEM high glucose medium, containing fetal calf serum (10%, heat inactivated for 30 min at 56° C.), penicillin/streptomycin (1%), and 375 μg/ml geneticin (Gibco). Cells were released from culture flasks using trypsin/EDTA, harvested, washed twice with ice-cold PBS (without Ca^2+ and Mg^2+), pelleted at 1,000 rpm for 5 min at 4° C., frozen and stored at −80° C. Frozen pellets were suspended in 20 ml HEPES-NaOH (20 mM, pH 7.4) containing 10 mM EDTA and homogenized with a Polytron (PT 6000, Kinematica) at 14,000 rpm for 20 s. The homogenate was centrifuged at 48,000×g for 30 min at 4° C. Subsequently, the supernatant was removed and discarded, and the pellet resuspended in 20 ml HEPES-NaOH (20 mM, pH 7.4) containing 0.1 mM EDTA using the Polytron (20 s at 14,000 rpm). This procedure was repeated and the final pellet resuspended in HEPES-NaOH containing 0.1 mM EDTA and homogenized using the Polytron. Typically, aliquots of 2 ml membrane portions were stored at −80° C. With each new membrane batch the dissociation constant (Kd) was determined via a saturation curve. The TAAR1 radioligand ^3[H]—(S)-4-[(ethyl-phenyl-amino)-methyl]-4,5-dihydro-oxazol-2-ylamine (described in WO 2008/098857) was used at a concentration equal to the calculated Kd value, that was usually around 0.7 nM, resulting in the binding of approximately 0.5% of the radioligand and a specific binding representing approximately 70% of the total binding. Nonspecific binding was defined as the amount of ^3[H]—(S)-4-[(ethyl-phenyl-amino)-methyl]-4,5-dihydro-oxazol-2-ylamine bound in the presence of 10 μM unlabeled ligand. All compounds were tested at a broad range of concentrations ([…]) in duplicates. […] The 96 deep well plates were incubated for 1 hr at 4° C. Incubations were terminated by rapid filtration through Unifilter-96 plates (Packard Instrument Company) and glass filters GF/C (Perkin Elmer) presoaked for 1 hr in polyethylenimine (0.3%) and washed 3 times with 1 ml of cold binding buffer. After addition of 45 μl of Microscint 40 (PerkinElmer) the Unifilter-96 plate was sealed and after 1 hr the radioactivity counted using a TopCount Microplate Scintillation Counter (Packard Instrument Company).

[2] = target: rat TAAR1 (Rattus norvegicus (Rat), UniProt Q923Y9); experiment: Radioligand binding assay on rat TAAR1; conditions: membranes of HEK-293 cells stably expressing rat TAAR1; second value of cell mouse/rat
Protocol: as §1, §2, §3
Radioligand Binding Assay on rat TAAR1
as §4
HEK-293 cells stably expressing rat TAAR1 were maintained at 37° C. and 5% CO2 in DMEM high glucose medium, containing fetal calf serum (10%, heat inactivated for 30 min at 56° C.), penicillin/streptomycin (1%), and 375 μg/ml geneticin (Gibco). Cells were released from culture flasks using trypsin/EDTA, harvested, washed twice with ice-cold PBS (without Ca^2+ and Mg^2+), pelleted at 1,000 rpm for 5 min at 4° C., frozen and stored at −80° C. Frozen pellets were suspended in 20 ml HEPES-NaOH (20 mM, pH 7.4) containing 10 mM EDTA and homogenized with a Polytron (PT 6000, Kinematica) at 14,000 rpm for 20 s. The homogenate was centrifuged at 48,000×g for 30 min at 4° C. Subsequently, the supernatant was removed and discarded, and the pellet resuspended in 20 ml HEPES-NaOH (20 mM, pH 7.4) containing 0.1 mM EDTA using the Polytron (20 s at 14,000 rpm). This procedure was repeated and the final pellet resuspended in HEPES-NaOH containing 0.1 mM EDTA and homogenized using the Polytron. Typically, aliquots of 2 ml membrane portions were stored at −80° C. With each new membrane batch the dissociation constant (Kd) was determined via a saturation curve.
Nonspecific binding was defined as the amount of ^3-[H]-(S)-4-[(ethyl-phenyl-amino)-methyl]-4,5-dihydro-oxazol-2-ylamine bound in the presence of 10 μM unlabeled ligand. All compounds were tested at a broad range of concentrations (10 pM to 10 μM) in duplicates. […] The 96 deep well plates were incubated for 1 hr at 4° C. Incubations were terminated by rapid filtration through Unifilter-96 plates (Packard Instrument Company) and glass filters GF/C (Perkin Elmer) presoaked for 1 hr in polyethylenimine (0.3%) and washed 3 times with 1 ml of cold binding buffer. After addition of 45 μl of Microscint 40 (PerkinElmer) the Unifilter-96 plate was sealed and after 1 hr the ratioactivity counted using a TopCount Microplate Scintillation Counter (Packard Instrument Company).

Sequence of rat TAAR1 (Q923Y9 whole entry): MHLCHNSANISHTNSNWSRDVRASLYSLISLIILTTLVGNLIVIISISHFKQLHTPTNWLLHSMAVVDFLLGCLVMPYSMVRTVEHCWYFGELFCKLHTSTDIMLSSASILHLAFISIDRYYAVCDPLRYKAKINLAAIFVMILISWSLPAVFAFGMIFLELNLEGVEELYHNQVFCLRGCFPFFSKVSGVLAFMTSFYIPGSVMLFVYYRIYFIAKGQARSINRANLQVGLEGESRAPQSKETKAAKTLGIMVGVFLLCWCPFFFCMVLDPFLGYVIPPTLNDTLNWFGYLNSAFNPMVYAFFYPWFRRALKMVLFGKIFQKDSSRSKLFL
Sequence of mouse TAAR1 (Q923Y8 whole entry): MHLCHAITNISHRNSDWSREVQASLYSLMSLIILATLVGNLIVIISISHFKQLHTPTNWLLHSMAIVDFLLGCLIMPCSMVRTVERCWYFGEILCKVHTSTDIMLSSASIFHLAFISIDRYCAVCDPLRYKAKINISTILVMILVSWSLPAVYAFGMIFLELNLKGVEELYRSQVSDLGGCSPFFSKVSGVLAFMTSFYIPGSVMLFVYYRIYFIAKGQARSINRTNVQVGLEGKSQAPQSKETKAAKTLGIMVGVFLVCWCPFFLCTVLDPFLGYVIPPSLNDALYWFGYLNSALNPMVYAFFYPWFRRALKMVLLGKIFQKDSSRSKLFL

Row | Compound | Ki [1] | Ki [2]
1 | O=C(Nc1ccc([C@@H]2CNCCO2)cc1)c1ccn(-c2ccc(OC(F)F)cc2)n1 [Example 46, (R)-1-(4-(Difluoromethoxy)phenyl)-N-(4-(morpholin-2-yl)phenyl)-1H-pyrazole-3-carboxamide hydrochloride] | 0.004 µM | 0.0006 µM
2 | O=C(Nc1ccc([C@H]2CNCCO2)cc1)c1ccn(-c2ccc(Cl)cn2)n1 [Example 32, (S)-1-(5-Chloropyridin-2-yl)-N-(4-(morpholin-2-yl)phenyl)-1H-pyrazole-3-carboxamide hydrochloride] | 0.0007 µM | 0.0011 µM
3 | O=C(Nc1ccc([C@H]2CNCCO2)cc1)c1ccn(-c2ccc(OC(F)F)cc2)n1 [Example 45, (S)-1-(4-(Difluoromethoxy)phenyl)-N-(4-(morpholin-2-yl)phenyl)-1H-pyrazole-3-carboxamide hydrochloride] | 0.0018 µM | 0.0014 µM
4 | Cn1nc(-c2cccc(C#N)c2)cc1C(=O)Nc1ccc([C@H]2CNCCO2)cc1 [Example 24, (S)-3-(3-cyanophenyl)-1-methyl-N-(4-(morpholin-2-yl)phenyl)-1H-pyrazole-5-carboxamide hydrochloride] | 0.0067 µM | 0.0142 µM
5 | N#Cc1ccc(-n2ccc(C(=O)Nc3ccc([C@H]4CNCCO4)cc3)n2)cc1 [Example 34, (S)-1-(4-Cyanophenyl)-N-(4-(morpholin-2-yl)phenyl)-1H-pyrazole-3-carboxamide hydrochloride] | 0.0037 µM | 0.0092 µM
6 | O=C(Nc1ccc([C@H]2CNCCO2)cc1)c1ccn(-c2cncc(C(F)(F)F)n2)n1 [Example 52, (S)—N-(4-(Morpholin-2-yl)phenyl)-1-(6-(trifluoromethyl)pyrazin-2-yl)-1H-pyrazole-3-carboxamide hydrochloride] | 0.0084 µM | 0.0074 µM
7 | N#Cc1cnc(-n2ccc(C(=O)Nc3ccc([C@H]4CNCCO4)cc3)n2)cn1 [Example 53, (S)-1-(5-Cyanopyrazin-2-yl)-N-(4-(morpholin-2-yl)phenyl)-1H-pyrazole-3-carboxamide hydrochloride] | 0.011 µM | 0.0298 µM
8 | Cc1c(-c2ccccc2)n[nH]c1C(=O)Nc1ccc([C@H]2CNCCO2)cc1 [Example 6, (S)-4-methyl-N-(4-(morpholin-2-yl)phenyl)-3-phenyl-1H-pyrazole-5-carboxamide hydrochloride] | 0.0016 µM | 0.008 µM
9 | Cn1nc(-c2cccc(Cl)c2)cc1C(=O)Nc1ccc([C@H]2CNCCO2)cc1 [Example 17, (S)-3-(3-chlorophenyl)-1-methyl-N-(4-(morpholin-2-yl)phenyl)-1H-pyrazole-5-carboxamide hydrochloride] | 0.0016 µM | 0.0024 µM
10 | Cn1nc(-c2ccccc2)cc1C(=O)Nc1ccc([C@@H]2CNCCO2)cc1 [Example 19, (R)-1-methyl-N-(4-(morpholin-2-yl)phenyl)-3-phenyl-1H-pyrazole-5-carboxamide hydrochloride] | 0.0079 µM | 0.0028 µM
11 | O=C(Nc1ccc([C@H]2CNCCO2)cc1)c1ccn(-c2ccc(F)cc2)n1 [Example 29, (S)-1-(4-Fluorophenyl)-N-(4-(morpholin-2-yl)phenyl)-1H-pyrazole-3-carboxamide hydrochloride] | 0.0011 µM | 0.0024 µM
12 | O=C(Nc1ccc([C@H]2CNCCO2)cc1)c1ccn(-c2nccnc2Cl)n1 [Example 49, (S)-1-(3-Chloropyrazin-2-yl)-N-(4-(morpholin-2-yl)phenyl)-1H-pyrazole-3-carboxamide hydrochloride] | 0.0142 µM | 0.139 µM
13 | O=C(Nc1ccc([C@H]2CNCCO2)cc1)c1ccn(-c2cc(C(F)(F)F)ncn2)n1 [Example 51, (S)—N-(4-(Morpholin-2-yl)phenyl)-1-(6-(trifluoromethyl)pyrimidin-4-yl)-1H-pyrazole-3-carboxamide hydrochloride] | 0.0142 µM | 0.0071 µM
14 | O=C(Nc1ccc([C@@H]2CNCCO2)cc1)c1ccn(-c2ccc(C(F)(F)F)cn2)n1 [Example 35, (R)—N-(4-(Morpholin-2-yl)phenyl)-1-(5-(trifluoromethyl)pyridin-2-yl)-1H-pyrazole-3-carboxamide hydrochloride] | 0.0022 µM | 0.0006 µM
15 | CCn1nc(C(=O)Nc2ccc([C@H]3CNCCO3)cc2)cc1-c1cccc(OC(F)F)c1 [Example 41, (S)-5-(3-(Difluoromethoxy)phenyl)-1-ethyl-N-(4-(morpholin-2-yl)phenyl)-1H-pyrazole-3-carboxamide hydrochloride] | 0.0025 µM | 0.0016 µM
16 | CCn1nc(-c2cccc(C#N)c2)cc1C(=O)Nc1ccc([C@H]2CNCCO2)cc1 [Example 25, (S)-3-(3-cyanophenyl)-1-ethyl-N-(4-(morpholin-2-yl)phenyl)-1H-pyrazole-5-carboxamide hydrochloride] | 0.0051 µM | 0.0078 µM
17 | COc1ccc(-c2cc(C(=O)Nc3ccc([C@H]4CNCCO4)cc3)[nH]n2)cc1OC [Example 11, (S)-3-(3,4-dimethoxyphenyl)-N-(4-(morpholin-2-yl)phenyl)-1H-pyrazole-5-carboxamide hydrochloride] | 0.0026 µM | 0.0127 µM
18 | O=C(Nc1ccc([C@H]2CNCCO2)cc1)c1ccn(-c2ncc(C(F)(F)F)cn2)n1 [Example 47, (S)—N-(4-(Morpholin-2-yl)phenyl)-1-(5-(trifluoromethyl)pyrimidin-2-yl)-1H-pyrazole-3-carboxamide hydrochloride] | 0.0198 µM | 0.0196 µM
19 | O=C(Nc1ccc([C@@H]2CNCCO2)cc1)c1cc(-c2ccccc2Cl)n[nH]1 [Example 13, (R)-3-(2-chlorophenyl)-N-(4-(morpholin-2-yl)phenyl)-1H-pyrazole-5-carboxamide hydrochloride] | 0.0008 µM | 0.001 µM
20 | N#Cc1cccc(-c2cc(C(=O)Nc3ccc([C@H]4CCCNC4)cc3)[nH]n2)c1 [Example 37, (R)-3-(3-Cyanophenyl)-N-(4-(piperidin-3-yl)phenyl)-1H-pyrazole-5-carboxamide hydrochloride] | 0.0017 µM | 0.0027 µM
